In ChEMBL document CHEMBL5678818, “Discovery of potent SOS1 inhibitors that block RAS activation via disruption of the RAS-SOS1 interaction” (Proc Natl Acad Sci U S A, 2019):
Activity calls are given as the source filed them. No cut-off for these calls is given here.

Tests used:
[1] = target: Casein kinase I isoform gamma-2 (Homo sapiens) (UniProt P78368); assay: Inhibition of CSNK1G2 (unknown origin) assessed as residual activity at 100 nM by KINOMEscan analysis relative to control
[2] = target: Proto-oncogene tyrosine-protein kinase Src (Homo sapiens) (UniProt P12931); assay: Inhibition of SRC (unknown origin) assessed as residual activity at 100 nM by KINOMEscan analysis relative to control
[3] = target: Tyrosine-protein kinase JAK2 (Homo sapiens) (UniProt O60674); assay: Inhibition of JAK2 JH1 catalytic domain (unknown origin) assessed as residual activity at 100 nM by KINOMEscan analysis relative to control
[4] = target: Vascular endothelial growth factor receptor 1 (Homo sapiens) (UniProt P17948); assay: Inhibition of FLT1 (unknown origin) assessed as residual activity at 100 nM by KINOMEscan analysis relative to control
[5] = target: Dual specificity tyrosine-phosphorylation-regulated kinase 1B (Homo sapiens) (UniProt Q9Y463); assay: Inhibition of DYRK1B (unknown origin) assessed as residual activity at 100 nM by KINOMEscan analysis relative to control
[6] = target: Mitogen-activated protein kinase kinase kinase 14 (Homo sapiens) (UniProt Q99558); assay: Inhibition of NIK (unknown origin) assessed as residual activity at 100 nM by KINOMEscan analysis relative to control
[7] = target: Calcium-dependent protein kinase 1 (Plasmodium falciparum) (UniProt P62344); assay: Inhibition of Plasmodium falciparum CDPK1 assessed as residual activity at 100 nM by KINOMEscan analysis relative to control
[8] = target: Phosphatidylinositol 4-phosphate 3-kinase C2 domain-containing subunit beta (Homo sapiens) (UniProt O00750); assay: Inhibition of PIK3C2B (unknown origin) assessed as residual activity at 100 nM by KINOMEscan analysis relative to control
[9] = target: Homeodomain-interacting protein kinase 2 (Homo sapiens) (UniProt Q9H2X6); assay: Inhibition of HIPK2 (unknown origin) assessed as residual activity at 100 nM by KINOMEscan analysis relative to control
[10] = test system: Tyrosine-protein kinase ABL1 (Homo sapiens), P00519 [Y253F]; assay: Inhibition of phosphorylated ABL1 Y253F mutant (unknown origin) assessed as residual activity at 100 nM by KINOMEscan analysis relative to control
Homo sapiens [11] = organism: Homo sapiens; assay: Inhibition of N-terminal His10-tagged recombinant human KRAS G12C/C118S mutant (1 to 169 residues) expressed in Escherichia coli/Series S C1 sensor chip-immobilized biotinylated N-terminal His10-tagged wild-type recombinant human SOS1 catalytic domain (564 to 1049 residues) expressed in Escherichia coli protein-protein interaction at 10 uM measured for 360 secs by SPR analysis; conditions: time 360.0 sec
[12] = target: Tyrosine-protein kinase Tec (Homo sapiens) (UniProt P42680); assay: Inhibition of TEC (unknown origin) assessed as residual activity at 100 nM by KINOMEscan analysis relative to control
[13] = target: Serine/threonine-protein kinase MRCK alpha (Homo sapiens) (UniProt Q5VT25); assay: Inhibition of MRCKA (unknown origin) assessed as residual activity at 100 nM by KINOMEscan analysis relative to control
GTPase KRas = GTPase KRas (Homo sapiens, UniProt P01116, G12C); assay: Inhibition of N-terminal GST-tagged recombinant human KRAS G12C mutant (1 to 169 residues) expressed in Escherichia coli assessed as reduction in intrinsic GTP exchange preincubated for 10 mins with KRAS followed by SOS1 addition measured after 30 mins in presence of EDA-GTP-DY-647P1 by HTRF analysis
[14] = target: Serine/threonine-protein kinase SIK1 (Homo sapiens) (UniProt P57059); assay: Inhibition of SIK (unknown origin) assessed as residual activity at 100 nM by KINOMEscan analysis relative to control
[15] = target: Mitogen-activated protein kinase 6 (Homo sapiens) (UniProt Q16659); assay: Inhibition of ERK3 (unknown origin) assessed as residual activity at 100 nM by KINOMEscan analysis relative to control
[16] = target: Ribosomal protein S6 kinase beta-1 (Homo sapiens) (UniProt P23443); assay: Inhibition of S6K1 (unknown origin) assessed as residual activity at 100 nM by KINOMEscan analysis relative to control
Homo sapiens [17] = organism: Homo sapiens; assay: Inhibition of N-terminal His10-tagged 15N-labeled recombinant human KRAS G12C/C118S mutant (1 to 169 residues) expressed in Escherichia coli/N-terminal His10-tagged wild-type recombinant human SOS1 catalytic domain (564 to 1049 residues) expressed in Escherichia coli protein-protein interaction at 1 mM incubated for 30 mins by 2D-NMR analysis
[18] = target: Glycogen synthase kinase-3 beta (Homo sapiens) (UniProt P49841); assay: Inhibition of GSK3B (unknown origin) assessed as residual activity at 100 nM by KINOMEscan analysis relative to control
[19] = target: Tyrosine-protein kinase FRK (Homo sapiens) (UniProt P42685); assay: Inhibition of FRK (unknown origin) assessed as residual activity at 100 nM by KINOMEscan analysis relative to control
[20] = test system: Phosphatidylinositol 4,5-bisphosphate 3-kinase catalytic subunit alpha isoform (Homo sapiens), P42336 [I800L]; assay: Inhibition of PIK3CA I800L mutant (unknown origin) assessed as residual activity at 100 nM by KINOMEscan analysis relative to control
[21] = target: Angiopoietin-1 receptor (Homo sapiens) (UniProt Q02763); assay: Inhibition of TIE2 (unknown origin) assessed as residual activity at 100 nM by KINOMEscan analysis relative to control
[22] = target: Ephrin type-A receptor 5 (Homo sapiens) (UniProt P54756); assay: Inhibition of EPHA5 (unknown origin) assessed as residual activity at 100 nM by KINOMEscan analysis relative to control
[23] = target: Dual specificity protein kinase CLK2 (Homo sapiens) (UniProt P49760); assay: Inhibition of CLK2 (unknown origin) assessed as residual activity at 100 nM by KINOMEscan analysis relative to control
[24] = test system: Receptor-type tyrosine-protein kinase FLT3 (Homo sapiens), P36888 [R834Q]; assay: Inhibition of FLT3 R834Q mutant (unknown origin) assessed as residual activity at 100 nM by KINOMEscan analysis relative to control
Homo sapiens [25] = organism: Homo sapiens; assay: Inhibition of ACVR1 (unknown origin) assessed as residual activity at 100 nM by KINOMEscan analysis relative to control
[26] = test system: Tyrosine-protein kinase ABL1 (Homo sapiens), P00519 [M351T]; assay: Inhibition of phosphorylated ABL1 M351T mutant (unknown origin) assessed as residual activity at 100 nM by KINOMEscan analysis relative to control
[27] = target: Serine/threonine-protein kinase PAK 5 (Homo sapiens) (UniProt Q9P286); assay: Inhibition of PAK7 (unknown origin) assessed as residual activity at 100 nM by KINOMEscan analysis relative to control

COc1cc2ncnc(N[C@H](C)c3cccc4ccccc34)c2cc1OC
Activity [1]: 91%
Activity [2]: 90%
Activity [3]: 93%
Activity [4]: 93%
Activity [5]: 76%
Activity [6]: 81%
Activity [7]: 84%
Activity [8]: 81%
Activity [9]: 93%
Activity [10]: 98%
Activity (Homo sapiens [11]): Active
Activity [12]: 87%
Activity [13]: 14%
IC50 (GTPase KRas): > 20 µM
Activity [14]: 85%
Activity [15]: 40%
Activity [16]: 77%
Activity (Homo sapiens [17]): Active
Activity [18]: 94%
Activity [19]: 93%
Activity [20]: 98%
Activity [21]: 68%
Activity [22]: 86%
Activity [23]: 100%
Activity [24]: 93%
Activity (Homo sapiens [25]): 83%
Activity [26]: 100%
Activity [27]: 100%
